Data on 10 compounds can be found in patent publication US8617540B2, “Combinational chemotherapy treatment” (Fox Chase Cancer Center, priority 2009, dated 2013).

Like-named read-outs stand apart in the source and are kept apart here.

Data set [1] relates to cells treated with 5-FU and HmdU. Nature of the data set: Effect of PARP-1 inhibitors on cytotoxicity of 5-FU and HmdU. The following applies: PARP-1 inhibitor added.
Text: (§1) Taking account of effect of 3-aminobenzamide on cell cycle shown FIG. 14B, effects of PARP-1 inhibitors on cytotoxicity were examined.
Data set [2] relates to HT-29 cells. Put plainly: Cell cycle analysis of synchronized cells. Type of data set: cell-based. The following applies: 48 h of treatment with 5-FU and HmdU. On the procedure:
Panel A is a cell cycle analysis of synchronized HT-29 cells with 5-FU, HmdU, and combined 5-FU/HmdU treatment over a period of two days.
First, clonogenic assays were performed to determine the time course of the combination of 5-FU and HmdU. […] Subsequently, cell cycle distribution was assessed.

The test system of data set [3] is cells treated with 5-FU and HmdU.
Text: as §1
Data set [4] has as its system HT-29 colon cancer cells. Nature of the data set: Cell growth assay (WST-1), combination analysed with CombiTool. It is filed as cell-based. The following applies: for synergistic activity on growth inhibition in combination with HmdU: 5-FU related compound used with HmdU; for synergistic activity on growth inhibition when combined with 5-FU: HmdU related drug combined with 5-FU. On the procedure:
In a typical cell growth assay, cells were plated in 96-well plates on Day 0, and indicated concentrations of drugs were added on Day 1. Each condition was replicated in triplicate. Subsequently, quantities of metabolically active cells in each well were measured by WST-1 assay on Day 4. The WST-1 assay (assay reagents from Roche) measures the concentration of formazan converted from a tetrazolium salt, WST-1, by a mitochondrial succinate-tetrazolium-reductase system.
CombiTool is a computer program for the analysis of combination effects of biologically active agents and is described in Dressler et al. (Computers and Biomedical Research (1999) 32:145-160). It performs model calculations and an analysis of experimental combination effects for two or three agents according to both the Bliss independence and the Loewe additivity criteria. Zero interaction response surfaces are calculated from single-agent dose-response relations and compared to experimental combination data. The calculation of response surfaces for Loewe additivity is based on a new approach which combines the implicit definition equation in terms of doses alone with single-agent dose-response relations. CombiTool has a built-in graphics facility which allows for the direct visualization of the response surfaces or the corresponding contour plots and the experimental data.
In the present example, the in vitro effects of 5-FU and HmdU treatment were assessed in several cell lines. […] FIG. 1B show the results interpreted with the CombiTool program which indicates synergistic experimental data by large gray circles above the lower additive results when the drugs are used alone. […] FIGS. 1C and 1D show similar results from experiments in the colon cancel cell line, HCT116.
Further testing was performed on the HT-29 cell line to assess whether compounds that are structurally and/or functionally related to 5-FU and HmdU also display synergistic activity on growth inhibition. In a series of experiments 5-FU was tested with: (1) 5-Hydroxymethyluracil (HmU), a base form which is subsequently converted to a nucleoside form, HmdUrd; (2) Deoxyuridine (dUrd), a nucleoside which is different from HmdU by the lack of modification at the 5-carbon position; and (3) 5-Hydroxydeoxyuridine (OHdU), a nucleoside which is different from HmdU by the lack of a methyl group in the 5-carbon modification. […] See FIG. 7A-7D (HmU—obtained from Cayman Chemical and Aldrich Chemical Company, respectively+5FU), FIG. 8A-8B (dUrd+5FU), and FIG. 9A-9B (OHdU+5FU).
Another set of experiments tested several alternative 5-FU agents in combination with HmdU to determine if synergy exists when the agents were administered in combination. The 5-FU related compounds used with HmdU were: (1) 5-Fluorodeoxyuridine (5-FdU), a deoxyribonucleoside (2) Deoxyadenosine (dA), an agent capable of decreasing dTTP; and (3) Raltitrexed, a structural analog of 5,10-methylene tetrahydrofolate (CH2THF), and a specific inhibitor of thymidylate synthase (TS). […] See FIGS. 11 (dA) and 12 (Raltitrexed).
Background: Formazan colour is commonly taken as a measure of viable cells.

In data set [5] the test system is HT-29. Nature of the data set: Caspase inhibitor rescue from cell killing by 5-FU and HmdU. The following applies: caspase inhibitor added. Type of data set: cell-based. Here is the method:
Further, experiments were performed to uncover whether the combined treatment with 5-FU and HmdU induces PARP1 cleavage, which would indicate that apoptosis is the pathway responsible for the cytotoxic effects. […] Both of the results in FIGS. 17 and 18 indicate that the cell killing by the combined drug treatment is not via apoptosis. However, the combination has a synergistic effect on the cytotoxicities of 5-FU and HmdU, and derivatives thereof.

`NC(=O)c1cccc(N)c1` [3-aminobenzamide]: the “effect on growth inhibition by 5-FU and HmdU” value in data set [1] was “rescued cells from growth inhibition”. Moreover, the “effect of added agent on the cell cycle” value in data set [2] is “allows cells to complete DNA replication”.

Regarding `Nc1ccc2c3c(cccc13)C(=O)NC2=O` [4-amino-1,8-naphtalimide], the “effect on growth inhibition by 5-FU and HmdU” value in data set [3] is “rescued cells from growth inhibition”.

With `O=c1[nH]c(=O)n([C@H]2C[C@H](O)[C@@H](CO)O2)cc1F` [5-FdU, 5-Fluorodeoxyuridine], the “synergistic activity on growth inhibition in combination with HmdU” value in data set [4] is “strong synergy”.

For the compound `O=c1[nH]cc(CO)c(=O)[nH]1` [HmU, 5-Hydroxymethyluracil], in data set [4], the “synergistic activity on growth inhibition when combined with 5-FU” value is given as “did not show any significant synergistic effects”.

For `O=c1[nH]c(=O)n([C@H]2C[C@H](O)[C@@H](CO)O2)cc1O` [OHdU, 5-Hydroxydeoxyuridine], in data set [4], the “synergistic activity on growth inhibition when combined with 5-FU” value was “did not show any significant synergistic effects”.

As to `CC(C)[C@H](NC(=O)c1ccc2ccccc2n1)C(=O)N[C@@H](CC(=O)O)C(=O)COc1c(F)cccc1F` [QVD], in data set [5], the “rescue from cell killing by the 5-FU and HmdU treatment” value is listed as “did not rescue”.

With `Cc1nc2ccc(CN(C)c3ccc(C(=O)N[C@@H](CCC(=O)O)C(=O)O)s3)cc2c(=O)[nH]1` [Raltitrexed], in data set [4], the “synergistic activity on growth inhibition in combination with HmdU” value is recorded as “did not show any significant synergistic effects”.

With `Cn1c(=O)c2c(ncn2C)n(C)c1=O` [caffeine], the “effect of added agent on the cell cycle” value in data set [2] is on record as “overcomes G2/M arrest”.

`Nc1ncnc2c1ncn2[C@H]1C[C@H](O)[C@@H](CO)O1` [dA, Deoxyadenosine]: in data set [4], the “synergistic activity on growth inhibition in combination with HmdU” value is given as “did not show any significant synergistic effects”.

For `O=c1ccn([C@H]2C[C@H](O)[C@@H](CO)O2)c(=O)[nH]1` [dUrd, Deoxyuridine], the “synergistic activity on growth inhibition when combined with 5-FU” value in data set [4] is listed as “did not show any significant synergistic effects”.
